Measured values published in the NIST ThermoML archive (doi:10.1016/j.jct.2010.07.002).

Assays:
[1] = xn = mol fraction of the nth substance listed; settings: 101.3 kPa, Liquid, Vibrating tube method
[2] = 101.33 kPa, Liquid, Vibrating tube method
[3] = isobaric coefficient of expansion; settings: 101.33 kPa, Liquid, Vibrating tube densimeter

C[N+](=O)[O-] [nitromethane] + O
mass density [kg/m3], [1]
Settings | 278.15 K | 288.15 K | 298.15 K | 308.15 K | 318.15 K
x2 = 0.001777 | 1158.13 | 1144.64 | 1131.07 | 1117.42 | 1103.68
x2 = 0.002859 | 1158.06 | 1144.56 | 1130.99 | 1117.35 | 1103.61
x2 = 0.004913 | 1157.94 | 1144.44 | 1130.87 | 1117.22 | 1103.48
x2 = 0.00632 | 1157.85 | 1144.35 | 1130.78 | 1117.13 | 1103.39
x2 = 0.008036 | 1157.74 | 1144.24 | 1130.67 | 1117.02 | 1103.29
x2 = 0.009712 | 1157.64 | 1144.14 | 1130.57 | 1116.92 | 1103.18
x2 = 0.01188 | 1157.5 | 1144 | 1130.43 | 1116.79 | 1103.06
x2 = 0.01446 | 1157.34 | 1143.85 | 1130.28 | 1116.63 | 1102.9
x2 = 0.01696 | 1157.19 | 1143.7 | 1130.13 | 1116.49 | 1102.75
x2 = 0.02033 | 1156.99 | 1143.5 | 1129.93 | 1116.29 | 1102.56
x2 = 0.02492 | 1156.72 | 1143.23 | 1129.66 | 1116.02 | 1102.3
x2 = 0.02911 | 1156.49 | 1143 | 1129.43 | 1115.79 | 1102.07

C[N+](=O)[O-] [nitromethane]
Settings | isobaric coefficient of expansion, 278.15 K | isobaric coefficient of expansion, 288.15 K | isobaric coefficient of expansion, 298.15 K | isobaric coefficient of expansion, 308.15 K | isobaric coefficient of expansion, 318.15 K | mass density, 278.15 K [kg/m3] | mass density, 288.15 K [kg/m3] | mass density, 298.15 K [kg/m3] | mass density, 308.15 K [kg/m3] | mass density, 318.15 K [kg/m3]
[2] | – | – | – | – | – | 1158.25 | 1144.75 | 1131.18 | 1117.53 | 1103.79
[3] | 0.00116 1/K | 0.00118 1/K | 0.0012 1/K | 0.00122 1/K | 0.00125 1/K | – | – | – | – | –
